Experimental data: paper PMC10049354, “Anti-Inflammatory Effects and Photo- and Neuro-Protective Properties of BIO203, a New Amide Conjugate of Norbixin, in Development for the Treatment of Age-Related Macular Degeneration (AMD)” (International Journal of Molecular Sciences, 2023)

Columns and labels:
[1] = BIO203 in plasma and eyes of mice after 6 months of BIO203-containing pellets; format: in vivo
Protocol: (§1) A custom rodent diet was formulated and irradiated (25 kGy) by Envigo RMS SARL (Gannat, France). Low dose (LD)-BIO203 (50 μg/g) and high dose (HD)-BIO203 (500 μg/g) were incorporated into Teklad Custom Research Diet 2016© pellets. The pellets were stored at −20 °C until use and were administered ad libitum as the standard Teklad Global Rodent Diet 2016© used for the control group. The concentration of BIO203 in the customized pellets at the end of each batch was determined by HPLC MS/MS. The mean concentration was 46 μg/g ± 3.5 μg/g of pellet for the LD and 464 μg/g ± 24.3 μg/g of pellet for the HD. We calculated that in the LD group, male mice weighing 31.63 g after 2 months of complementation consumed 4.16 g of pellets, and in the HD group, male mice weighing 34.11 g after 2 months of complementation consumed 4.11 g of pellets every day, which correspond to a daily dose of 6.04 ± 0.46 mg/kg for the LD-BIO203 pellets and 55.91 ± 2.93 mg/kg for the HD-BIO203 pellets.
To test the preventive/curative action of oral administration of BIO203 against retinal neurodegeneration, a total of 27 Pigmented Abca4^−/− Rdh8^−/− mice carrying the Rpe65-Leu450 mutation and the rd8 mutation in the Crb1 gene from Case Western Reserve University of eleven to twelve months of age were used. Three groups of 9 males received control chow (Teklad Custom Research Diet 2016© pellets) or chow containing LD-BIO203 or HD-BIO203 orally for 6 months. After 6 months of complementation, ERG was measured in both eyes. In the control group, two mice died during the period of complementation and one mouse during ERG measurement. In the HD-BIO203 group, one mouse died before the end of complementation, and 3 mice died just after anesthesia. […] In each group, half of the eyes were removed for A2E and BIO203 measurements, and half of the eyes were used for histological analyses and photoreceptor layer quantification.
Analysis was performed on an LC 1260 System coupled with Mass Spectrometer QQQ-6420 with DAD (Agilent Technologies). […] BIO203 and its isomers were monitored by a mass spectrometer, in positive MRM mode, with the following transitions, respectively, 381.1 -> 144.9 and 478.1 -> 362.9. For quantification of BIO201 and BIO203, calibration curves were prepared under the same conditions as the sample matrix, with various amounts of BIO201 or BIO203 (25 to 10,000 ng/mL in plasma and 5 to 500 ng/mL for eyes).
For determination of norbixin or BIO203 concentrations in plasma, aliquots of plasma samples (25 μL) and internal standard (retinoic acid at 10 µg/mL) were distributed in a 96-well microtiter plate and precipitated with methanol (100 μL). […] Under these conditions, with 5 μL injections, the limit of quantification (LOQ) was 25 ng/mL (0.33 pmol for BIO201 and 0.26 pmol for BIO203). […]

[2] = system: Abca4−/− Rdh8−/− mice; test: ERG after 6 months of oral complementation in Abca4−/− Rdh8−/− mice; format: in vivo, mouse
Protocol: The ERG in rats was performed using the electrophysiological system RETI-animal® from Roland Consult. ERG was recorded on both eyes from overnight dark-adapted animals. Rats were anesthetized by an intramuscular injection of a mix of Rompun® (xylazine)/Imalgene® (ketamine) before ERG measurement. Ten to fifteen minutes before measurement, one drop of Mydriaticum® (0.5% tropicamide) was instilled for pupillary dilatation. The A-wave and B-wave implicit times (ms) and amplitudes (µV) were measured for each ERG. The B-wave amplitude (value and %) was given as informative data. ERG parameters: Ganzfeld Q450C, Color: white maximum, Maximum intensity: 3 cd/m^2 (0 dB); Duration 0.24 ms; number of flashes: 1, Filter: 50 Hz, Impedance threshold: 50 kΩ. For scotopic ERGs, the A-wave amplitudes were measured from the baseline to the peak of the negative potential, whereas B-wave amplitudes were measured from the trough of the A-wave to the peak of the positive potential. The recordings obtained from these analyses were tabulated and normalized (%) for each eye. Group means, standard deviation, and median values were calculated, considering each eye from one animal as a separate value. ERG recordings in mice were performed as previously described.
as §1
To test the preventive/curative action of oral administration of BIO203 against retinal neurodegeneration, a total of 27 Pigmented Abca4^−/− Rdh8^−/− mice carrying the Rpe65-Leu450 mutation and the rd8 mutation in the Crb1 gene from Case Western Reserve University of eleven to twelve months of age were used. […] After 6 months of complementation, ERG was measured in both eyes. […] In each group, half of the eyes were removed for A2E and BIO203 measurements, and half of the eyes were used for histological analyses and photoreceptor layer quantification.

[3] = system: RXR; test: RXR transactivation assay induced by A2E; format: cell-based, pig; conditions: compound 20 μM; A2E 20 μM; porcine RPE cells
Protocol: Transactivation assays were performed as previously described. Briefly, RPE cells were plated in DMEM 2% FCS at a density of 6 × 10^4 cells/cm^2. The next day transfections using the Cignal Reporter Assay Kits for PPAR, RXR, AP-1, and NF-κB were performed with Lipofectamine and Plus Reagent in serum-free medium. Three hours after the transfection, A2E and/or BIO203, both at 20 μM, were added to the culture medium for 24 h. Luciferase activity was measured using the Dual-Luciferase Reporter Assay System and with a luminometer (Infinite M1000 from Tecan, Mannedorf, Switzerland). At least 3 independent transfections were performed in triplicate for each condition.

[4] = system: albino rats exposed to blue-light-induced photoreceptor degeneration; design: method as in PMID 27992460; conditions: IP; cited from earlier work
[5] = system: VEGF; design: method as in PMID 34544906; conditions: norbixin at 20 mM (so in the source); cited from earlier work

SMILES	BIO203 in the eyes ([1]; HD pellets (500 μg/g))	BIO203 in the plasma ([1]; HD pellets (500 μg/g))	BIO203 in the eyes ([1]; LD pellets (50 μg/g))	BIO203 in the plasma ([1]; LD pellets (50 μg/g))	photopic B wave ERG compared with control pellets ([2]; HD pellets)	scotopic A wave ERG compared with control pellets ([2]; HD pellets, flash intensities 1 and 10 cd.s/m^2, p < 0.05)	scotopic B wave ERG compared with control pellets ([2]; HD pellets, flash intensity 30 cd.s/m^2, p < 0.05)	effect on the visual function (ERG) ([2]; LD pellets)	inhibition of RXR transactivation induced by A2E [3]	lowest dose giving the maximal retinal neuroprotection and optimal preservation of visual functions [4] [mg/kg]	effect on VEGF mRNA expression [5]
COC1CCCN(C(=O)/C=C/C(C)=C/C=C/C(C)=C/C=C/C=C(C)/C=C/C=C(C)\C=C\C(=O)O)C1 (centres unmarked) [BIO203]	not detected	detected	not detected	absence of BIO203 plasmatic exposure	no significant difference	significantly superior	reduced the loss	No effect	did not inhibit		
CC(=C/C=C/C(C)=C/C=C/C=C(C)/C=C/C=C(C)/C=C/C(=O)O)/C=C/C(=O)O [norbixin, 9′-cis-norbixin]										50	significantly reduced
